From paper PMC9775191, “A Subset Screen of the Compounds Australia Scaffold Library Identifies 7-Acylaminodibenzoxazepinones as Potent and Selective Hits for Anti-Giardia Drug Discovery” (Biomedicines, 2022)

system: Escherichia coli (ATCC 25922); assay: Anti-bacterial activity assay; assay type: cell-based; details: Escherichia coli, ATCC25922, 50 µM; read-out: Bacterial Inhibition E. coli
Experimental: (§1) The activity of compounds against methicillin resistant Staphylococcus aureus (ATCC 43300), Escherichia coli (ATCC 25922), Acinetobacter baumannii (ATCC 19606) and Klebsiella pneumoniae (ATCC 700603) was assessed at 50 µM in duplicate as previously described. In brief, mid-log phase bacteria cultures were added to 384-well microtiter plate wells containing compound to final cell density of 5 × 10^5 CFU/mL in 50 µL. Plates were then covered and incubated at 37 °C for 18 h without shaking. Inhibition of bacterial growth was determined by measuring absorbance at 600 nm (Tecan M1000 Pro monochromator plate reader) and calculating percentage growth inhibition relative to the negative media and bacteria without inhibitors. Vancomycin hydrochloride (Sigma-Aldrich an affiliate of Merck KGaA, Darmstadt, Germany, #861987) and colistin sulfate (Sigma-Aldrich an affiliate of Merck KGaA, Darmstadt, Germany, C4461) were on each plate as positive controls for Gram-positive (S. aureus) and Gram-negative (E. coli, A. baumannii and K. pneumoniae) bacteria, respectively.

In order of rising inhibition at 50 µM:
1. O=[N+]([O-])c1cc(F)ccc1Sc1nnc(N2CCOCC2)s1 [SN00781107, Fc1ccc(Sc2nnc(s2)N2CCOCC2)c(c1)N(=O)=O]  2.28%
2. COc1c(C)cnc(Cn2cnc([N+](=O)[O-])c2)c1C [SN00782023, COc1c(C)cnc(Cn2cnc(c2)N(=O)=O)c1C]  5.99%
3. Cc1ncc([N+](=O)[O-])n1Cc1csc(Cc2ccccc2)n1 [SN00780011, O=N(=O)c1cnc(C)n1Cc1csc(Cc2ccccc2)n1]  8.95%

system: Acinetobacter baumannii (ATCC 19606); assay: Anti-bacterial activity assay; assay type: cell-based; details: ATCC19606, 50 µM
Experimental: as §1

In order of falling inhibition at 50 µM:
1. Cc1ncc([N+](=O)[O-])n1Cc1csc(Cc2ccccc2)n1 [SN00780011, O=N(=O)c1cnc(C)n1Cc1csc(Cc2ccccc2)n1]  10.5%
2. COc1c(C)cnc(Cn2cnc([N+](=O)[O-])c2)c1C [SN00782023, COc1c(C)cnc(Cn2cnc(c2)N(=O)=O)c1C]  9.49%
3. O=[N+]([O-])c1cc(F)ccc1Sc1nnc(N2CCOCC2)s1 [SN00781107, Fc1ccc(Sc2nnc(s2)N2CCOCC2)c(c1)N(=O)=O]  3.43%

system: Klebsiella pneumoniae (ATCC 700603); assay: Anti-bacterial activity assay; assay type: cell-based; details: ATCC700603, 50 µM, read-out: Bacterial Inhibition K. pneumoniae
Experimental: as §1

In order of falling inhibition at 50 µM:
1. Cc1ncc([N+](=O)[O-])n1Cc1csc(Cc2ccccc2)n1 [SN00780011, O=N(=O)c1cnc(C)n1Cc1csc(Cc2ccccc2)n1]  16.4%
2. O=[N+]([O-])c1cc(F)ccc1Sc1nnc(N2CCOCC2)s1 [SN00781107, Fc1ccc(Sc2nnc(s2)N2CCOCC2)c(c1)N(=O)=O]  10.6%
3. COc1c(C)cnc(Cn2cnc([N+](=O)[O-])c2)c1C [SN00782023, COc1c(C)cnc(Cn2cnc(c2)N(=O)=O)c1C]  8.15%

system: methicillin resistant Staphylococcus aureus (ATCC 43300); assay: Anti-bacterial activity assay; assay type: cell-based; details: Staphylococcus aureus, ATCC43300, 50 µM; read-out: Bacterial Inhibition S. aureus
Experimental: as §1

In order of falling inhibition at 50 µM:
1. Cc1ncc([N+](=O)[O-])n1Cc1csc(Cc2ccccc2)n1 [SN00780011, O=N(=O)c1cnc(C)n1Cc1csc(Cc2ccccc2)n1]  11.7%
2. COc1c(C)cnc(Cn2cnc([N+](=O)[O-])c2)c1C [SN00782023, COc1c(C)cnc(Cn2cnc(c2)N(=O)=O)c1C]  10%
3. O=[N+]([O-])c1cc(F)ccc1Sc1nnc(N2CCOCC2)s1 [SN00781107, Fc1ccc(Sc2nnc(s2)N2CCOCC2)c(c1)N(=O)=O]  4.13%

system: Neonatal foreskin fibroblast (NFF) cells; assay: Mammalian cell cytotoxicity assay (sulforhodamine B); assay type: cell-based, human; details: Homo sapiens, NFF; 20 µM; ±SD
Experimental: The selectivity of compounds of interest was assessed against NFF cells. Assays were performed using sulforhodamine B and included media only, negative (no compound, no DMSO), and vehicle (DMSO) controls as previously described. A chloroquine control plate was included in each assay. […] Repurchased SN00797640 was tested in dose–response from 100 µM against NFF. Selectivity indices (SI) were calculated by dividing mammalian cell IC50 values by G. duodenalis BRIS/91/HEPU/1279 IC50 values.

In order of falling inhibition at 20 µM:
1. Cc1ncc([N+](=O)[O-])n1Cc1csc(Cc2ccccc2)n1 [SN00780011, O=N(=O)c1cnc(C)n1Cc1csc(Cc2ccccc2)n1]  9.2 ± 12.4%
2. COc1c(C)cnc(Cn2cnc([N+](=O)[O-])c2)c1C [SN00782023, COc1c(C)cnc(Cn2cnc(c2)N(=O)=O)c1C]  -6.3 ± 3.6%
3. O=[N+]([O-])c1cc(F)ccc1Sc1nnc(N2CCOCC2)s1 [SN00781107, Fc1ccc(Sc2nnc(s2)N2CCOCC2)c(c1)N(=O)=O]  -19.8 ± 44.9%

same assay, conditions: Table S2; NFF vs 48 h Giardia IC50

In the case of Cc1ncc([N+](=O)[O-])n1Cc1csc(Cc2ccccc2)n1 [SN00780011, O=N(=O)c1cnc(C)n1Cc1csc(Cc2ccccc2)n1], the “SI (48h Gd)” value is reported as > 3.
In the case of COc1c(C)cnc(Cn2cnc([N+](=O)[O-])c2)c1C [SN00782023, COc1c(C)cnc(Cn2cnc(c2)N(=O)=O)c1C], the “SI (48h Gd)” value is reported as > 3.

system: G. duodenalis BRIS/91/HEPU/1279; assay: Giardia dose response assay, assemblage B; assay type: cell-based, Giardia duodenalis; details: Giardia duodenalis, 24 h, read-out: G. duodenalis IC50 24h, Table S2; 24 h; ±SD; max 10 µM
Experimental: In these assays, compounds were serially diluted (8–12-point doubling dilutions in technical duplicate) in DMSO control media, with all test wells inoculated with parasites (1.5 × 10^4 parasites for BRIS/91/HEPU/1279 and BRIS/91/HEPU/1279m1, or 3 × 10^3 parasites for BRIS/87/HEPU/713). […] All plates were sealed in culture chambers and gassed with 3% O2, 5% CO2 in N2 and incubated at 37 °C for 48 h, with parasites imaged and enumerated at 24 and 48 h. Growth inhibition was calculated as a percentage relative to vehicle controls minus any background as described above and IC50 values were determined using log-linear interpolation as previously described. […] Statistical comparison of IC50 values when required were performed using Student’s t-test.

First: Cc1ncc([N+](=O)[O-])n1Cc1csc(Cc2ccccc2)n1 [SN00780011, O=N(=O)c1cnc(C)n1Cc1csc(Cc2ccccc2)n1]
Second: COc1c(C)cnc(Cn2cnc([N+](=O)[O-])c2)c1C [SN00782023, COc1c(C)cnc(Cn2cnc(c2)N(=O)=O)c1C]
The IC50 of the first is higher: > 10 µM for the first, 6.8 µM for the second.

O=[N+]([O-])c1cc(F)ccc1Sc1nnc(N2CCOCC2)s1 [SN00781107, Fc1ccc(Sc2nnc(s2)N2CCOCC2)c(c1)N(=O)=O] gave an IC50 of 6.87 ± 1.88 µM.

same assay, conditions: Giardia duodenalis, 48 h, Table S2; 48 h; ±SD; max 10 µM; read-out: G. duodenalis IC50 48h

In order of falling IC50:
1. COc1c(C)cnc(Cn2cnc([N+](=O)[O-])c2)c1C [SN00782023, COc1c(C)cnc(Cn2cnc(c2)N(=O)=O)c1C]  6.51 µM
2. Cc1ncc([N+](=O)[O-])n1Cc1csc(Cc2ccccc2)n1 [SN00780011, O=N(=O)c1cnc(C)n1Cc1csc(Cc2ccccc2)n1]  5.48 µM
3. O=[N+]([O-])c1cc(F)ccc1Sc1nnc(N2CCOCC2)s1 [SN00781107, Fc1ccc(Sc2nnc(s2)N2CCOCC2)c(c1)N(=O)=O]  1.86 ± 2.52 µM

system: G. duodenalis BRIS/91/HEPU/1279; assay: Primary Giardia screen at 10 µM (live-cell imaging, automated counting); assay type: cell-based, Giardia duodenalis; details: Giardia duodenalis, 24 h, first singlicate assay, read-out: % Inhibition n=1 24h
Method in brief: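 Percent growth versus 0.2% DMSO vehicle, background-corrected with media-only wells, is reported at 24 and 48 h from automated live-cell counts. Testing used 10 μM final in a 3% O2 atmosphere, with plate quality checked by Z' factor.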

In order of rising inhibition at 10 µM:
1. Cc1ncc([N+](=O)[O-])n1Cc1csc(Cc2ccccc2)n1 [SN00780011, O=N(=O)c1cnc(C)n1Cc1csc(Cc2ccccc2)n1]  33.3%
2. O=[N+]([O-])c1cc(F)ccc1Sc1nnc(N2CCOCC2)s1 [SN00781107, Fc1ccc(Sc2nnc(s2)N2CCOCC2)c(c1)N(=O)=O]  34%
3. COc1c(C)cnc(Cn2cnc([N+](=O)[O-])c2)c1C [SN00782023, COc1c(C)cnc(Cn2cnc(c2)N(=O)=O)c1C]  40.2%

same assay, conditions: Giardia duodenalis, 24 h, re-assessment, read-out: % Inhibition n=2 24h

In order of rising inhibition at 10 µM:
1. COc1c(C)cnc(Cn2cnc([N+](=O)[O-])c2)c1C [SN00782023, COc1c(C)cnc(Cn2cnc(c2)N(=O)=O)c1C]  11.3%
2. Cc1ncc([N+](=O)[O-])n1Cc1csc(Cc2ccccc2)n1 [SN00780011, O=N(=O)c1cnc(C)n1Cc1csc(Cc2ccccc2)n1]  27%
3. O=[N+]([O-])c1cc(F)ccc1Sc1nnc(N2CCOCC2)s1 [SN00781107, Fc1ccc(Sc2nnc(s2)N2CCOCC2)c(c1)N(=O)=O]  27.7%

same assay, conditions: Giardia duodenalis, 24 h, read-out: Average % Inhibition 24h

In order of falling inhibition at 10 µM:
1. O=[N+]([O-])c1cc(F)ccc1Sc1nnc(N2CCOCC2)s1 [SN00781107, Fc1ccc(Sc2nnc(s2)N2CCOCC2)c(c1)N(=O)=O]  30.8%
2. Cc1ncc([N+](=O)[O-])n1Cc1csc(Cc2ccccc2)n1 [SN00780011, O=N(=O)c1cnc(C)n1Cc1csc(Cc2ccccc2)n1]  30.1%
3. COc1c(C)cnc(Cn2cnc([N+](=O)[O-])c2)c1C [SN00782023, COc1c(C)cnc(Cn2cnc(c2)N(=O)=O)c1C]  25.8%

same assay, conditions: Giardia duodenalis, 48 h, first singlicate assay, read-out: % Inhibition n=1 48h

In order of rising inhibition at 10 µM:
1. Cc1ncc([N+](=O)[O-])n1Cc1csc(Cc2ccccc2)n1 [SN00780011, O=N(=O)c1cnc(C)n1Cc1csc(Cc2ccccc2)n1]  54.9%
2. O=[N+]([O-])c1cc(F)ccc1Sc1nnc(N2CCOCC2)s1 [SN00781107, Fc1ccc(Sc2nnc(s2)N2CCOCC2)c(c1)N(=O)=O]  64.2%
3. COc1c(C)cnc(Cn2cnc([N+](=O)[O-])c2)c1C [SN00782023, COc1c(C)cnc(Cn2cnc(c2)N(=O)=O)c1C]  83.4%

same assay, conditions: Giardia duodenalis, 48 h, re-assessment, read-out: % Inhibition n=2 48h

In order of falling inhibition at 10 µM:
1. COc1c(C)cnc(Cn2cnc([N+](=O)[O-])c2)c1C [SN00782023, COc1c(C)cnc(Cn2cnc(c2)N(=O)=O)c1C]  82.5%
2. Cc1ncc([N+](=O)[O-])n1Cc1csc(Cc2ccccc2)n1 [SN00780011, O=N(=O)c1cnc(C)n1Cc1csc(Cc2ccccc2)n1]  79.2%
3. O=[N+]([O-])c1cc(F)ccc1Sc1nnc(N2CCOCC2)s1 [SN00781107, Fc1ccc(Sc2nnc(s2)N2CCOCC2)c(c1)N(=O)=O]  57.4%

same assay, conditions: Giardia duodenalis, 48 h, read-out: Average % Inhibition 48h

In order of falling inhibition at 10 µM:
1. COc1c(C)cnc(Cn2cnc([N+](=O)[O-])c2)c1C [SN00782023, COc1c(C)cnc(Cn2cnc(c2)N(=O)=O)c1C]  82.9%
2. Cc1ncc([N+](=O)[O-])n1Cc1csc(Cc2ccccc2)n1 [SN00780011, O=N(=O)c1cnc(C)n1Cc1csc(Cc2ccccc2)n1]  67.1%
3. O=[N+]([O-])c1cc(F)ccc1Sc1nnc(N2CCOCC2)s1 [SN00781107, Fc1ccc(Sc2nnc(s2)N2CCOCC2)c(c1)N(=O)=O]  60.8%
